Data on 68 sequences can be found in the supplement of paper PMC11208160.
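Also: IS621 bridge recombinase in Escherichia coli cells against a fixed T5 target plasmid.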

A short description of the data set: recombinant UMI read abundance after kanamycin selection (control-corrected) (log10(CPM+1)); higher = more efficient recombination; extreme values may be limits of the assay; sequences stand for … in AGTGCAGAGAAAATCGGCCAGTTTTCTCTGCCTGCAGTCCGCATGCCGTGGGACCCCTTGGGTTCTAACCTGTTGCCTAGATTTATGCAGCGGACTGCCTTTCTCCCAAAGTGATAAACCGG…AGGTTGGTTTCACT; site = the 11-nt donor. The method, boiled down:
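Under IPTG (0.07 mM) plus kanamycin, or without selection, Escherichia coli carrying a UMI-tagged donor and donor-binding-loop pair library and a target plasmid for the IS621 bridge recombinase were plated in two replicates. Recombinant UMIs were PCR-amplified across the donor–target junction and sequenced. Counts were converted to CPM, averaged over replicates, scaled by control-derived factors and reported as log10(CPM+1).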
Regarding “CACGGCCCATGGACCGGTTTTCCCGGTAATCCGTATTTGTT (site CACGTCCCTAA)”, the “recombinant UMI read abundance (log10)” value was found to be 0.0115.

With “CACGGCCCATGGACCGGTTTTCCCGGTAATCCGTATTTGTT (site CACTGCCCTAA)”, the “recombinant UMI read abundance (log10)” value turned out to be 0.0132. In the case of “CACGGCCCATGGACCGGTTTTCCCGGTAATCCGTATTTGTT (site CAGGGCCCTAA)” it was 0.00724. The value for “CACGGCCCATGGACCGGTTTTCCCGGTAATCCGTATTTGTT (site CATGGCCCTAA)” was 0.013. In the case of “CACGGCCCATGGACCGGTTTTCCCGGTAATCCGTATTTGTT (site CCCGGCCCTAA)” it was 0.0158; in that of “CACGGCCCATGGACCGGTTTTCCCGGTAATCCGTATTTGTT (site CGCGGCCCTAA)”, 0.0132. For “CACGGCCCATGGACCGGTTTTCCCGGTAATCCGTATTTGTT (site CTCGGCCCTAA)”, the “recombinant UMI read abundance (log10)” value is 0.0153. The value for “CACGGCCCATGGACCGGTTTTCCCGGTAATCCGTATTTGTT (site GACGGCCCTAA)” was 0.0197; that for “CACGGCCCATGGACCGGTTTTCCCGGTAATCCGTATTTGTT (site TACGGCCCTAA)” was 0.0279; that for “CACGGCGCATGGACCGGTTTTCCCGGTAATCCGTATTTGTT (site CACGGCACTAA)” was 1.5.

Take “CACGGCGCATGGACCGGTTTTCCCGGTAATCCGTATTTGTT (site CACGGCCCTAA)”: the “recombinant UMI read abundance (log10)” value came out at 0.445. The value for “CACGGCGCATGGACCGGTTTTCCCGGTAATCCGTATTTGTT (site CACGGCGCTAA)” was 1.74; that for “CACGGCGCATGGACCGGTTTTCCCGGTAATCCGTATTTGTT (site CACGGCTCTAA)” was 1.22. In the case of “CACGTATCATGGACCGGTTTTCCCGGTAATCCGTATTTGAC (site CACGTATCTGT)” it was 2.78.

For the sequence “CACGTATCATGGACCGGTTTTCCCGGTAATCCGTATTTGAC (site CTAGTATCTGT)”, the “recombinant UMI read abundance (log10)” value was determined as 1.1. The value for “CACGTCACATGGACCGGTTTTCCCGGTAATCCGTATTTGGG (site CAAGTCACTCC)” was 0.0977; that for “CACGTCACATGGACCGGTTTTCCCGGTAATCCGTATTTGGG (site CACGTCACTCC)” was 0.0104. The value for “CACGTCACATGGACCGGTTTTCCCGGTAATCCGTATTTGGG (site CAGGTCACTCC)” was 0.00985. The value for “CACGTCACATGGACCGGTTTTCCCGGTAATCCGTATTTGGG (site CATGTCACTCC)” was 0.012; that for “CACGTCCCATGGACCGGTTTTCCCGGTAATCCGTATTTGTT (site CACGACCCTAA)” was 0.22. For the sequence “CACGTCCCATGGACCGGTTTTCCCGGTAATCCGTATTTGTT (site CACGCCCCTAA)”, the “recombinant UMI read abundance (log10)” value is 0.263.

With “CACGTCCCATGGACCGGTTTTCCCGGTAATCCGTATTTGTT (site CACGGCCCTAA)”, the “recombinant UMI read abundance (log10)” value was determined as 0.00825.

With “CACGTCCCATGGACCGGTTTTCCCGGTAATCCGTATTTGTT (site CACGTCCCTAA)”, the “recombinant UMI read abundance (log10)” value was determined as 0.326.

In the case of “CACGTGGCATGGACCGGTTTTCCCGGTAATCCGTATTTGGA (site CACATGGCTTC)”, the “recombinant UMI read abundance (log10)” value is 0.429. The value for “CACGTGGCATGGACCGGTTTTCCCGGTAATCCGTATTTGGA (site CACCTGGCTTC)” was 0.475; that for “CACGTGGCATGGACCGGTTTTCCCGGTAATCCGTATTTGGA (site CACGTGGCTTC)” was 1.2.

For “CACGTGGCATGGACCGGTTTTCCCGGTAATCCGTATTTGGA (site CACTTGGCTTC)”, the “recombinant UMI read abundance (log10)” value came to 0.235. In the case of “CACTAGCCATGGACCGGTTTTCCCGGTAATCCGTATTTGCC (site CACTAGCCTGG)” it was 0.665; in that of “CACTAGCCATGGACCGGTTTTCCCGGTAATCCGTATTTGCC (site CCCTAGCCTGG)”, 0; in that of “CACTAGCCATGGACCGGTTTTCCCGGTAATCCGTATTTGCC (site CGCTAGCCTGG)”, 0. The value for “CACTAGCCATGGACCGGTTTTCCCGGTAATCCGTATTTGCC (site CTCTAGCCTGG)” was 0; that for “CACTAGGCATGGACCGGTTTTCCCGGTAATCCGTATTTGAT (site CACTAGGCTAT)” was 1.33. The value for “CACTCGACATGGACCGGTTTTCCCGGTAATCCGTATTTGTG (site CACTCGACTCA)” was 0.319. As to “CACTCGTCATGGACCGGTTTTCCCGGTAATCCGTATTTGCC (site CACTCATCTGG)”, the “recombinant UMI read abundance (log10)” value worked out at 2.88. The value for “CACTCGTCATGGACCGGTTTTCCCGGTAATCCGTATTTGCC (site CACTCCTCTGG)” was 0; that for “CACTCGTCATGGACCGGTTTTCCCGGTAATCCGTATTTGCC (site CACTCGTCTGG)” was 3.2; that for “CACTCGTCATGGACCGGTTTTCCCGGTAATCCGTATTTGCC (site CACTCTTCTGG)” was 0.

For “CACTCTTCATGGACCGGTTTTCCCGGTAATCCGTATTTGTT (site CACTCTTCTAA)”, the “recombinant UMI read abundance (log10)” value was determined as 1.58. In the case of “CACTGACCATGGACCGGTTTTCCCGGTAATCCGTATTTGGG (site CACTGACCTCC)” it was 0.00646; in that of “CACTGCTCATGGACCGGTTTTCCCGGTAATCCGTATTTGCC (site CACTACTCTGG)”, 2; in that of “CACTGCTCATGGACCGGTTTTCCCGGTAATCCGTATTTGCC (site CACTCCTCTGG)”, 0. The value for “CACTGCTCATGGACCGGTTTTCCCGGTAATCCGTATTTGCC (site CACTGCTCTGG)” was 2.93. In the case of “CACTGCTCATGGACCGGTTTTCCCGGTAATCCGTATTTGCC (site CACTTCTCTGG)” it was 0; in that of “CACTTCTCATGGACCGGTTTTCCCGGTAATCCGTATTTGCC (site CACTACTCTGG)”, 1.09; in that of “CACTTCTCATGGACCGGTTTTCCCGGTAATCCGTATTTGCC (site CACTCCTCTGG)”, 1.41. Regarding “CACTTCTCATGGACCGGTTTTCCCGGTAATCCGTATTTGCC (site CACTGCTCTGG)”, the “recombinant UMI read abundance (log10)” value turned out to be 0. The value for “CACTTCTCATGGACCGGTTTTCCCGGTAATCCGTATTTGCC (site CACTTCTCTGG)” was 2.12; that for “CACTTGACATGGACCGGTTTTCCCGGTAATCCGTATTTGGA (site CACTTGACTTC)” was 0.194. Consider “CACTTGACATGGACCGGTTTTCCCGGTAATCCGTATTTGGA (site CACTTGCCTTC)”, for which the “recombinant UMI read abundance (log10)” value stood at 0.0198. The value for “CACTTGACATGGACCGGTTTTCCCGGTAATCCGTATTTGGA (site CACTTGGCTTC)” was 0.369; that for “CACTTGACATGGACCGGTTTTCCCGGTAATCCGTATTTGGA (site CACTTGTCTTC)” was 0.138; that for “CACTTGGCATGGACCGGTTTTCCCGGTAATCCGTATTTGAA (site CACTTGGCTTA)” was 0.431. The value for “CACTTGGCATGGACCGGTTTTCCCGGTAATCCGTATTTGAA (site CACTTGGCTTC)” was 0.236; that for “CACTTGGCATGGACCGGTTTTCCCGGTAATCCGTATTTGAA (site CACTTGGCTTG)” was 1.05; that for “CACTTGGCATGGACCGGTTTTCCCGGTAATCCGTATTTGAA (site CACTTGGCTTT)” was 1.33. As for “CACTTGGCATGGACCGGTTTTCCCGGTAATCCGTATTTGGT (site CACTTGGCTAC)”, the “recombinant UMI read abundance (log10)” value is 1.79.

In the case of “CACTTGGCATGGACCGGTTTTCCCGGTAATCCGTATTTGGT (site CACTTGGCTCC)”, the “recombinant UMI read abundance (log10)” value was 0.103. Consider “CACTTGGCATGGACCGGTTTTCCCGGTAATCCGTATTTGGT (site CACTTGGCTGC)”, for which the “recombinant UMI read abundance (log10)” value is 1.88. The value for “CACTTGGCATGGACCGGTTTTCCCGGTAATCCGTATTTGGT (site CACTTGGCTTC)” was 0.0133; that for “CACTTGGCATGGACCGGTTTTCCCGGTAATCCGTATTTGTA (site CACTTGGCTTA)” was 1.46; that for “CACTTGGCATGGACCGGTTTTCCCGGTAATCCGTATTTGTA (site CACTTGGCTTC)” was 0.00904. The value for “CACTTGGCATGGACCGGTTTTCCCGGTAATCCGTATTTGTA (site CACTTGGCTTG)” was 1.47; that for “CACTTGGCATGGACCGGTTTTCCCGGTAATCCGTATTTGTA (site CACTTGGCTTT)” was 0.75.

Take “CACTTTCCATGGACCGGTTTTCCCGGTAATCCGTATTTGAG (site CACTTTCCTCT)”: the “recombinant UMI read abundance (log10)” value turned out to be 0.0778. The value for “CACTTTGCATGGACCGGTTTTCCCGGTAATCCGTATTTGGA (site CACTTAGCTTC)” was 0.0269; that for “CACTTTGCATGGACCGGTTTTCCCGGTAATCCGTATTTGGA (site CACTTCGCTTC)” was 0.0129. The value for “CACTTTGCATGGACCGGTTTTCCCGGTAATCCGTATTTGGA (site CACTTGGCTTC)” was 0.0264; that for “CACTTTGCATGGACCGGTTTTCCCGGTAATCCGTATTTGGA (site CACTTTGCTTC)” was 1.71.
